Converted amounts (≈) assume the structure as drawn. “And” between values parts separate entries of the source, which are not always exact repeats. Equal entries are not always repeated.
Key:
[1] = system: dA/dT and dG/dC homopolymers; test: fluorescence and absorption with dA/dT and dG/dC homopolymers; assay type: binding
Description: (§1) Plasmid dsDNA was purified using a Qiagen Maxiprep kit and used in the supercoiled form for absorption and fluorescence studies. E. coli total RNA was bought from Ambion, dA/dT and dG/dC homopolymers were purchased from Amersham Biosciences. Calf thymus (CT) high-molecular weight DNA and Hoechst 33258 were obtained from Sigma-Aldrich. Ethidium bromide was purchased from Amresco.
(§2) Spectrometry and fluorimetry were performed using a SpectraMax384 (Molecular Devices) and a Luminescence Spectrometer LS50B (Perkin Elmer). Fluorescence emission of compound I in complex with DNA and RNA was measured in 50 mM Na phosphate buffer, pH 7.2 at room temperature. Before use, total E. coli RNA was heated to 100° C. for 1 min and immediately transferred on ice for 5 min before mixing with compound I solution. All measurements were carried out at room temperature (20-23° C.) in solutions protected from light and incubated for ˜10-15 min after dilution. The units of b/dye and bp/dye are defined as moles of RNA bases or DNA base pairs per mole of dye. Quantum yield was measured using quinine sulphate as standard as described in (Iupac Commission on Photochemistry, EPA Newsletter of November 1986, 21-29) using FLUOROMAX-3 Spex Spectrofluorometer (HORIBA) and UVIKON XL Spectrophotometer (SECOMAM).
Many intercalating dyes and minor groove-binding DNA dyes can interact differently with dA/dT or dG/dC DNA tracts. […] To investigate the properties of compound I when bound to different DNA tracts, the inventors examined its fluorescence in admixture with an excess of plasmid DNA and either dA/dT or dG/dC homopolymers. […] The peak at 484 nm was much more pronounced when plasmid DNA was replaced by the dA/dT homopolymers (see also FIG. 1F). […] In FIG. 3C, the graphs show emission spectra upon excitation at 371 nm to allow plotting the emission of free compound I. Similar results were obtained when exciting DNA/compound I complexes at 391 and 435 nm.

[2] = solubility in DMSO; assay type: physicochemical; conditions: organic solvent or mixture, free base, read-out: solubility (saturation)
Description: Solubility of compound I: In DMSO, compound I (free base) is soluble until saturation at ˜7 mM. As much as 1 volume of 7 mM, compound I in DMSO mixed with 7 volumes of H2O forms a turbid solution (0.875 mM compound I in ˜12% DMSO). Upon sonication for 1 min, this solution becomes limpid and can be further dissolved in aqueous solutions.

[3] = system: plasmid DNA; test: absorption of free molecules before and after addition of plasmid DNA; assay type: physicochemical; set-up: Absorption maxima free dye / Absorption maxima DNA bound dye: unit not given here
Description: as §1, §2
Although compound I also stains mitotic chromosomes (FIG. 1D), theoretically it was possible that it binds specifically to DNA-associated proteins (for example histones) rather than to nucleic acids. To resolve this issue, the absorption and emission spectra of free compound I before and after addition of dsDNA were recorded. […] Molar extinction coefficient (EC) of free compound I at 391 nm was measured at 10,800 cm^−1 M^−1. In the presence of ds plasmid DNA the absorption peaks of compound I at 373 and 391 nm decreased, and a new peak appears with a maximum at 435 nm (FIG. 1E). An overlay of the absorption spectra in complex with dsDNA at different bp per dye ratios gives a single isosbestic point at 398 nm. Free compound I fluoresces around 438 nm (the exact position of the peak depends on the excitation wavelength). […] At the same time, a new peak evolves with a maximum around 484 nm (FIG. 1F). The exact maximum of fluorescence of compound I/DNA complexes varies insignificantly as a function of the dye/bp ratio and/or base pairs composition of the nucleic acids. […] The quantum yield for compound I (excited at 435 nm) at 5 μM in 50 mM Na-phosphate, pH 7.2, was determined to be 2.7% for free dye and 13.8% in admixture with 50 μM CT DNA.
To get a further insight into how the structural properties of compound I contribute to its binding to DNA, the inventors analysed fourteen structural analogues present in the compound library. Although several of these compounds are fluorescent in vivo, this property went undetected in the initial screen most likely due to the latency period before the appearance of the signal (see below). To evaluate the activity of compound I-like molecules three tests were used: (1) in vivo, the inventors incubated human fibroblasts in the presence of the molecules and scored nuclear fluorescence in the microscope; (2 and 3) in vitro, the inventors looked at the absorption and fluorescence of free molecules before and after addition of plasmid DNA. […] With the exception of compound I and analogues 8 and 12, accurate in vitro measurement of the fluorescence intensities was impossible because the emission peaks for the free molecules were too close to that for the DNA-bound dye. This affected the height of the dye/DNA peaks.

[4] = system: ds plasmid DNA or heat-denatured E. coli RNA; test: fluorescence titration with dsDNA versus RNA (selectivity); assay type: binding; conditions: for emission strength with DNA relative to RNA: 50 μM DNA or RNA
Description: as §1, §2
A number of known fluorescent dyes bind preferentially to dsDNA, while others, like the SYTO dyes, bind similarly well to dsDNA, ssDNA and RNA (Haugland, R. P. et al., supra). Knowing these properties is important to the design of experiments where one or another (or several) type(s) of nucleic acids may be present. To investigate the selectivity of compound I, the inventors have compared fluorescence intensities at 484 nm of the dye incubated with ds plasmid DNA or heat-denatured E. coli RNA. […] At higher dye/b or dye/bp ratio, the difference was smaller (1.8-fold at dye/b(bp) ratio 0.2), meaning that elevated amounts of dye could saturate both types of nucleic acids. The inventors then performed the experiment in the opposite sense, i.e. titrating a fixed amount of compound I at 1 μM with increasing amounts of DNA and RNA.

emission maximum ([1]; dA/dT homopolymers at bp/dye ratio 40): 484 nm | solubility [2]: ~7 mM (≈ 2830 µg/mL) | Absorption maxima DNA bound dye ([3]; after addition of plasmid DNA): 435 | isosbestic point of absorption spectra ([3]; complex with dsDNA at different bp per dye ratios): 398 nm | Molar extinction coefficient (EC) ([3]; free dye at 391 nm): 10,800 cm^−1 M^−1 | Absorption maxima free dye ([3]; free molecule, before addition of plasmid DNA): 394 | absorption maximum of new peak ([3]; in the presence of ds plasmid DNA): 435 nm
SMILES: COc1ccc2c(c1)c(C)nc1c3ccc(OC)cc3c(NCCCN(C)C)nc21 [Compound I, N′-(2,8-dimethoxy-12-methyl-dibenzo[c,h][1,5]naphthyridin-6-yl)-N,N-dimethyl-propane-1,3-diamine]
reduction of fluorescence peak at 438 nm with dG/dC homopolymer ([1]; 1 μM dye, homopolymer at 40 μM): 12.7 fold | fluorescence at 484 nm with dG/dC homopolymer, lower compared to dA/dT ([1]; 1 μM dye, homopolymers at 40 μM): 9.5 fold | difference in fluorescence bound to dA/dT and dG/dC homopolymers ([1]; dye/bp ratio 8, 5 μM dye, emission 484 nm, excitation 435 nm): 23 fold | absorption at 435 nm, dG/dC superior to dA/dT ([1]; higher bp/dye ratios): ~30% | absorption maxima of free dye ([3]; free compound): 224 nm and 245 nm and 283 nm and 326 nm and 373 nm and 391 nm | saturation of fixed amount of dye by RNA (not saturated) ([4]; 1 μM dye): > 250 b/dye | saturation of fixed amount of dye by dsDNA ([4]; 1 μM dye): ~30 bp/dye | fluorescence with dsDNA relative to RNA ([4]; 1 μM dye titrated with DNA and RNA, same b(bp)/dye ratios): 2.5-3.6 | emission strength with DNA relative to RNA ([4]; dye/b(bp) ratio 0.2): 1.8 fold | emission strength with DNA relative to RNA ([4]; low dye/bp and dye/b ratios, 484 nm): 6 fold
